Laboratory results: patent US20160120802A1, “ORALLY-DISINTEGRATING OSELTAMIVIR TABLET AND METHOD FOR PREPARING THE SAME” (priority 2013, published 2016)

Test system: pigeons
Assay: Pigeons vomiting model
Details: intragastric, equivalent to 30 mg oseltamivir per kg
Experimental: 1. Experimental Animal: Healthy Pigeons (Both Males and Females were Operable), 350±50 g of Weights, Common Grades, and Purchased from a Breeding Base.
70 healthy pigeons were randomly divided into 7 groups and adaptively fed with normal diets for 1 week before the experiment. Diets were prohibited within 4 hrs before the experiment, the room temperature was maintained at between 22 and 24° C., and the feeding environment was kept clean and well ventilated. The pigeons were administered with drugs according to the following groups, the administration dosage corresponded to 30 mg oseltamivir per kg of the pigeon's weight, or the equivalent amount of the starch.
Contrast group A, one group, administered with the raw material of oseltamivir with a dosage equivalent to 30 mg of oseltamivir per kg of the pigeon's weight.
Contrast group B, one group, administered with the polyacrylic acid resin IV with a dosage equivalent to 30 mg of the starch per kg of the pigeon's weight.
Contrast group D, one group, administered with the commercial oseltamivir phosphate capsules manufactured by Roche with a dosage equivalent to 30 mg of oseltamivir per kg of the pigeon's weight.
Observation indexes: latent periods of vomiting (the period from the administration to the first vomiting), vomiting times (occurrences of the vomiting after the drug administration, each occurrence of the vomiting refers to the duration from neck stretching, mouth opening, shrugging, and abdominal contraction of the pigeons to recovery of the quiet state of the pigeons), and vomiting frequencies (referring to the times of neck stretching, mouth opening, shrugging, and abdominal contraction of the pigeons).
The pigeons in each group were taken drugs by intragastric administration with a dosage equivalent to 30 mg of oseltamivir per kg of the pigeon's weight. The latent periods of vomiting (min) after the intragastric administration, as well as the vomiting times and the vomiting frequency in 5 hrs after the intragastric administration were recorded.
In each group, the number of the vomiting pigeons (n) was calculated. For the vomiting pigeons (including vomiting with vomitus and dry vomiting in the absence of vomitus), the latent period of vomiting (min, x±s), the average vomit times, and the average vomit frequencies were calculated, and results were listed in the following table 2.

CCOC(=O)C1=CC(OC(CC)CC)C(NC(C)=O)C(N)C1 (stereo not shown) [Contrast group A]
Note (kind of vomiting): Seven times of vomiting | Latent period for vomiting (vomiting pigeons, x ± s): 18.9 ± 5.4 min | Average vomiting times (within 5 hrs) (within 5 hrs): 11.1 | Vomiting frequencies (within 5 hrs, x ± s): 15.8 ± 2.1 times
